For test [1], the target named is T1, TRPV3 (G573S) (Homo sapiens, UniProt Q8NET8, G573S).
T1 construct: host or cells: HEK 293T (transient transfection, pEGFP-N1 co-transfected as a marker)
T1 sequence (Q8NET8 1-790 G573S): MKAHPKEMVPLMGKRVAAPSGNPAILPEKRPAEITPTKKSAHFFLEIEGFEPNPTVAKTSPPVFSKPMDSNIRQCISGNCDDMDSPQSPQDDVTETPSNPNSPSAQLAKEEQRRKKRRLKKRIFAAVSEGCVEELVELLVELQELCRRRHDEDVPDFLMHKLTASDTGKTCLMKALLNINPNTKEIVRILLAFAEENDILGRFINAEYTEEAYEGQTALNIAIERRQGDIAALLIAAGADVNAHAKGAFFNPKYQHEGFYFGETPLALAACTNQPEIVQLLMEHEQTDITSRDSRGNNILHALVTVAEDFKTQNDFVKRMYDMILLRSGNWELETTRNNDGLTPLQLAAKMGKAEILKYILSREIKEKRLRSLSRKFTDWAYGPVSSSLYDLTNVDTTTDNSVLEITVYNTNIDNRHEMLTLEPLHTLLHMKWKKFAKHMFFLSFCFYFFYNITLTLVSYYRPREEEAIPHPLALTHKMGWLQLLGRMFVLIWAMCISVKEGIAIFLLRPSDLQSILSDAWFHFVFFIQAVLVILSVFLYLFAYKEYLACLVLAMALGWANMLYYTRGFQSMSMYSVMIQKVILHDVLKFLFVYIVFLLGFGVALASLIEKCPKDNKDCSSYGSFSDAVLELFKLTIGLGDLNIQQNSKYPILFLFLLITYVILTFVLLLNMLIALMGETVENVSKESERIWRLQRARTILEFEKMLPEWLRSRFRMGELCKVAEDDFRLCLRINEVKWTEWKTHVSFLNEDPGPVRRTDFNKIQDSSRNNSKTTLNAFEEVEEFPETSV
Kind of test: Whole-cell patch-clamp, spontaneous current of TRPV3 G573S mutant in HEK 293T cells. It counts as cell-based. Particulars: −100 mV, read-out: IC50, inhibition of spontaneous current of TRPV3 G573S mutant. As to the method: For electrophysiology recording and calcium measurement, 10 µM 74a (a TRPV3 inhibitor) was added about 6 h after transfection to inhibit channel activities and prevent cell death. First, the electrophysiology activities of the mutations were recorded using a whole-cell patch-clamp. Our data presented spontaneous TRPV3 currents when −100 mV to 100 mV ramp pulses were applied, which dramatically declined with the addition of 1 µM alpha-mangostin (Figure 4A).
Figure 4 Alpha-mangostin inhibited the activity of hyperactive TRPV3 mutant channels and rescued mutation-induced cell death. (A) Alpha-mangostin inhibited the channel current in representative TRPV3 (G573S)- and TRPV3 (G573C)-expressing HEK 293T cells. […] Currents were normalized to the response at −100 mV before adding alpha-mangostin. (C) Alpha-mangostin inhibited TRPV3-mediated intracellular calcium increase in TRPV3 (G573S)-expressing HEK 293T cells. […] The bar graph on the right summarizes the change in the intracellular calcium rise inhibited by alpha-mangostin. […]
In the whole-cell configuration, voltage ramps from −100 to +100 mV over 1 s were applied every 20 s and the holding potential was set at 0 mV. Sampling at 10 kHz and low-pass filtering at 5 kHz (w-c) were applied for all recorded currents. Recorded data were analyzed using Clampfit ver. […]

Test [2] has as its system TRPV1. The following applies: read-out: IC50 (µM), channel inhibited TRPV1; cited from earlier work.

For orientation: IC50 means the concentration at which inhibition is half-maximal.

Take `COc1c(O)cc2oc3cc(O)c(CC=C(C)C)c(O)c3c(=O)c2c1CC=C(C)C` [Alpha-mangostin]: the figures for the IC50 in test [1] and in test [2] were 2.04 ± 0.64 µM and 0.43 ± 0.27 µM, respectively.

These data come from publication PMC10455244, “Alpha-Mangostin: A Potent Inhibitor of TRPV3 and Pro-Inflammatory Cytokine Secretion in Keratinocytes” (International Journal of Molecular Sciences, 2023).
